Read-outs that look alike come from different tables or passages of the source.

Test [1] addresses T1, human M2 receptor (Homo sapiens, UniProt P08172).
T1 sequence (P08172 1-466): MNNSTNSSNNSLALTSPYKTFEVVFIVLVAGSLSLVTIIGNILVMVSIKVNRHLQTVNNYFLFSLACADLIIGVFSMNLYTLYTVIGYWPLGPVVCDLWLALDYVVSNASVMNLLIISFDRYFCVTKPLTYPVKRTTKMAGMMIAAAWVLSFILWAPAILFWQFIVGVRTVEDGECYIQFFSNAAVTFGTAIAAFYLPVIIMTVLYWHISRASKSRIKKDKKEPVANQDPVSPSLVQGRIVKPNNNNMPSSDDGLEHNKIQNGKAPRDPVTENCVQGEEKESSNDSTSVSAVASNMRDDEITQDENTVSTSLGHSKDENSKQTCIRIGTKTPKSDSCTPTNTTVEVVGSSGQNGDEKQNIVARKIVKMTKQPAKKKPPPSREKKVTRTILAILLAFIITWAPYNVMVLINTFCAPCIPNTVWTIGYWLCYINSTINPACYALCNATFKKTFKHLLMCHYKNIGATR
The following applies: for Efficiency: boosting of the acetylcholine effect at EC20 acetylcholine concentration; for Emax: read-out: Efficiency, boosting of the acetylcholine effect at EC20 acetylcholine concentration.

Test [2] concerns the target T1, human M2 receptor. The format is cell-based. The following applies: α >1 = positive cooperativity.
Where [3] appears, read: Receptor activity EC50, allosteric potency at EC20 acetylcholine, M2-GIRK1/4 reporter cells, in some cases mean of two or more determinations.
The mark [4] stands for this setting: shift of acetylcholine dose-response curve (Allosteric EC50 shift).
Setting [5] is: Receptor activity EC50, M2-GIRK1/4 activation test, acetylcholine at EC20, allosteric potency, in some cases mean values from two or more determinations.
[6] abbreviates: shift in the acetylcholine dose-response curve (Allosteric EC50 shift, GraphPad PRISM).

In general, EC50 refers to the midpoint of the concentration-response curve. High values mean a need for much substance, low ones an effect from little substance. On human M2 receptor [1] (setting [3]), `CC(C)C(NC(=O)c1cn(-c2c(F)cc(F)cc2F)c2nc(N3C[C@@H](O)[C@H](O)C3)ccc2c1=O)C(F)(F)F` (single isomer, unassigned) [Example 554] showed an EC50 of 10 nM. On human M2 receptor [1] (M2-GIRK1/4 reporter cells), this molecule returned an Efficiency of 94.5%. In addition, on human M2 receptor [2] (setting [4]), the “Cooperativity (alpha factor)” value came out at 54.
In the case of `CCC(NC(=O)c1cn(-c2ccc(F)cc2F)c2nc(N3C[C@@H](O)CC3=O)ccc2c1=O)C(F)(F)C(F)(F)F` (single isomer, unassigned) [Example 557], the EC50 at human M2 receptor [1] (setting [3]) turned out to be 11 nM. For the same molecule, at human M2 receptor [1] (M2-GIRK1/4 reporter cells), the Emax is 100%. Also, the “Cooperativity (alpha factor)” value at human M2 receptor [2] (setting [4]) worked out at 44.
The matching figures for `O=C(NC(c1ccccc1Cl)C(F)(F)F)c1cn(-c2c(F)cc(F)cc2F)c2nc(N3C[C@@H](O)[C@H](O)C3)ccc2c1=O` (single isomer, unassigned) [Example 561]: 4 nM, 95% and 62.
Take `O=C(NC(c1ccccc1Cl)C(F)(F)F)c1cn(-c2c(F)cc(F)cc2F)c2nc(N3C[C@@H](O)[C@H](O)C3)ccc2c1=O` (single isomer, unassigned) [Example 562]: the response on human M2 receptor [1] (setting [3]) was half-maximal at 10 nM (EC50). For the same molecule, the Efficiency at human M2 receptor [1] (M2-GIRK1/4 reporter cells) is 100.0%. In addition, on human M2 receptor [2] (setting [4]), the “Cooperativity (alpha factor)” value is 40.
The like results for `CCC(COC(F)(F)F)NC(=O)c1cn(-c2c(F)cc(F)cc2F)c2nc(N3C[C@@H](O)[C@H](O)C3)ccc2c1=O` (single isomer, unassigned) [Example 578] were, in that order, 17 nM, 100.0% and 29.
`O=C(NC(CC(F)(F)F)C(F)(F)F)c1cn(-c2c(F)cc(F)cc2F)c2nc(N3C[C@@H](O)CC3=O)ccc2c1=O` (single isomer, unassigned) [Example 607] yielded an EC50 at human M2 receptor [1] (setting [3]) of 5 nM. Further, the Emax on human M2 receptor [1] (M2-GIRK1/4 reporter cells) worked out at 100%. The “Cooperativity (alpha factor)” value on human M2 receptor [2] (setting [4]) came to 32.
For the molecule `CC[C@H](NC(=O)c1cn(-c2c(F)cc(F)cc2F)c2nc(N3CC(O)C4(CC4)C3)ccc2c1=O)C(F)(F)F` (single isomer, unassigned) [Example 621], the EC50 on human M2 receptor [1] (setting [3]) amounted to 10 nM. This molecule gave an Efficiency on human M2 receptor [1] (M2-GIRK1/4 reporter cells) of 100.0%. Also, the “Cooperativity (alpha factor)” value on human M2 receptor [2] (setting [4]) came to 44.
`CCC(NC(=O)c1cn(-c2ccc(F)cc2F)c2nc(N3CCN(C(=O)OC)CC3)ccc2c1=O)C(F)(F)F` (single isomer, unassigned; enantiomer a) [Example 24, ent-Methyl 4-{8-(2,4-difluorophenyl)-5-oxo-6-[(1,1,1-trifluorobutan-2-yl)carbamoyl]-5,8-dihydro-1,8-naphthyridin-2-yl}piperazine-1-carboxylate (Enantiomer A)] showed an EC50 on human M2 receptor [1] (setting [5]) of 63 nM. In addition, the “Cooperativity (alpha factor)” value at human M2 receptor [2] (setting [6]) came out at 25.
The matching figures for `CCC(NC(=O)c1cn(-c2ccc(F)cc2F)c2nc(N3CCN(C(=O)OC)CC3)ccc2c1=O)C(F)(F)F` (single isomer, unassigned; enantiomer b) [Example 25, ent-Methyl 4-{8-(2,4-difluorophenyl)-5-oxo-6-[(1,1,1-trifluorobutan-2-yl)carbamoyl]-5,8-dihydro-1,8-naphthyridin-2-yl}piperazine-1-carboxylate (Enantiomer B)]: 84 nM and 20.
As for `CN(C)c1ccc2c(=O)c(C(=O)NC(C(C)(C)C)C(F)(F)F)cn(-c3ccc(F)cc3F)c2n1` (stereo in doubt) [Example 132, 1-(2,4-Difluorophenyl)-7-(dimethylamino)-4-oxo-N-[(2S)-1,1,1-trifluoro-3,3-dimethylbutan-2-yl]-1,4-dihydro-1,8-naphthyridine-3-carboxamide], the EC50 on human M2 receptor [1] (setting [5]) came out at 10 nM. Besides, the “Cooperativity (alpha factor)” value at human M2 receptor [2] (setting [6]) was found to be 7.
`CCC(NC(=O)c1cn(-c2ccc(F)cc2F)c2nc(N3CCC(O)C3)ccc2c1=O)C(F)(F)F` (stereo in doubt) [Example 218, 1-(2,4-Difluorophenyl)-7-[3-hydroxypyrrolidin-1-yl]-4-oxo-N-[(2S)-1,1,1-trifluorobutan-2-yl]-1,4-dihydro-1,8-naphthyridine-3-carboxamide] gave an EC50 on human M2 receptor [1] (setting [5]) of 153 nM. In addition, the “Cooperativity (alpha factor)” value on human M2 receptor [2] (setting [6]) is given as 33.
